{"source": "patent US20210395327A1", "about": "“Growth Hormone-Releasing Hormone Antagonists and Uses Thereof” (United States Government As Represented By The Department …, priority 2019, published 2021)", "key": {"[1]": {"tested_on": "RT4 urothelial cancer cells", "test": "In vitro cell viability, RT4", "assay_type": "cell-based, human", "conditions": "antagonist 5 μM for 72 h, cell proliferation assay; MIA602 = 1", "method": "(§1) The inhibitory effects of the various synthesized GHRH antagonists were tested in cell proliferation assays in various human cancer cell lines including stomach cancer (KATOIII, N87), colon cancer (HT-29), urothelial cancer (J82, RT4), pancreatic cancer (PANC-1, CFPAC-1), prostatic cancer (PC3), breast cancer (MX-1, HCC1806), ovarian cancer (SK-OV-3, OVCAR-3) and lung cancer (HCC827, H460).\n(§2) Cell culture. Human cancer cell lines including pancreatic (PANC-1 and CFPAC-1), lung (HCC827 and H460), stomach (NCI-N87 and KATOIII), urothelial (J82, RT4), prostatic (PC3), breast (MX-1 and HCC 1806), colorectal (HT-29), and ovarian (SK-OV-3 and OVCAR-3) were obtained from the American Type Culture Collection (ATCC) and cultured at 37° C. in a humidified 95% air/5% CO2 atmosphere in the medium recommended by ATCC.\n(§3) In vitro cell viability. Cell viability was analyzed as follows: cancer cells including pancreatic (PANC-1 and CFPAC-1), lung (HCC827 and H460), stomach (NCI-N87 and KATOIII), urothelial (J82, RT4), prostatic (PC3) and breast (MX-1 and HCC 1806), colorectal (HT-29) and ovarian (SK-OV-3 and OVCAR-3) were grown on 96 well plates to ˜60% confluence, the cells were starved for 24 h in culture medium containing 0.5% FBS. Cells were then treated with GHRH antagonists MIA602 AVR compounds at concentrations of 1, 2.5 or 5 μM, or vehicle (0.1% DMSO) in quintuplicates for 72 hours. The medium was replaced every 48 hours. Cell viability was measured using CellTiter 96 aqueous one solution kit (Promega). Inhibitory effects of tested AVR compounds in comparison to that of MIA602 are presented as inhibitory potency.\n(§4) Inhibitory effects of selected AVR compounds in comparison to that of MIA602 are presented as inhibitory potency (e.g., percentage of inhibition). […] The cell lines tested including lung cancer HCC827 (FIG. 2A), pancreatic cancer CFPAC-1 (FIG. 2B), stomach cancer N87 (FIG. 2C), colon cancer HT-29 (FIG. 2D), breast cancers MX-1 and HCC1806 (FIGS. 2 E, F). […]"}, "[2]": {"tested_on": "PC3 prostatic cancer cells", "test": "In vitro cell viability, PC3", "assay_type": "cell-based, human", "conditions": "antagonist 5 μM for 72 h, cell proliferation assay; MIA602 = 1", "method": "as §1, §2, §3, §4"}, "[3]": {"tested_on": "bleomycin-induced lung infiltrates", "test": "Bleomycin mouse model, micro-CT of lungs", "assay_type": "in vivo, C57Bl/6J mice", "conditions": "bleomycin plus MIA-602 vs vehicle", "method": "Bleomycin and GHRH-R antagonist treatment. Mice were treated with 0.8 units of bleomycin (Bleomycin for Injection USP, Hospira, Lake Forest, Ill.) intraperitoneally (IP) on days 1, 3, 7, 10, 14 and 21 (Collins S, Chan-Li Y, Oh M, Vigeland C, Limjunyawong N, Mitzner W, Powell J D, Horton M R (2016). JCI Insight 1(4):1-13). Mice (randomly assigned) were simultaneously treated subcutaneously (sc) with MIA-602 (5 μg/day) or its vehicle (100 μL/day). MIA-602 was dissolved in DMSO (ACS grade; Sigma-Aldrich) and diluted 1:500 in normal saline for daily sc injection on days 0-21.\nTissue preparations. Mice were killed by CO2 inhalation before any treatment, or on days 14 or 28 for micro-CT scans of lungs and harvesting of lung tissue (Vande Vel de G, Poelmans J, De Langhe E, Hillen A, Vanoirbeek J, Himmelreich U, Lories R (2016). Dis Model Mech 9:91). The right mainstem bronchus was ligated and the right lung removed and frozen at −80° C. for hydroxyproline (HP) assays. The left lung was filled with 10% buffered formalin at […] cm H2O pressure, the bronchus ligated, and the lung fixed in formalin. Fixed lungs were embedded in wax and 5 μm sections stained with hematoxylin and eosin (H&E) or Masson's trichrome stain.\nMicro-CT. Mice in each group were assessed by micro-CT scans (Bruker SkyScan 1176 Low Dose Micro-CT, Knotich, Belgium) of the lungs after CO2 inhalation. […]"}, "[4]": {"tested_on": "mouse lung fibroblasts (Mlg 2908)", "test": "Annexin V-propidium iodide assay of lung fibroblasts", "assay_type": "cell-based", "conditions": "24 hours, annexin-V/PI", "method": "(§5) Lung fibroblasts. Newborn mouse lung fibroblasts (Mlg 2908) were obtained from the American Type Culture Collection, Manassas, Va. and cultured in Eagle's minimal essential medium. Cells were grown in 6-well plates before incubation with 1 or 5 μM MIA-602 or vehicle, RNA isolation, and oxygen consumption measurements.\nAnnexin V-propidium iodide assay. Apoptosis and necrosis were assessed with annexin-V/propidium iodide staining (Annexin V: FITC Assay Kit, Bio Rad, Hercules, Calif. 94547) of lung fibroblasts incubated in 0, 1 or 5 μM MIA-602 for 24 hours (Rieger A, Nelson K, Konowalchuk J, Barreda D. (2011). J Visualized Experiments 50:e2597). Culture medium and trypsinized cells were collected and centrifuged at 400×g for 5 minutes. The pellet was resuspended in 100 μL annexin-V/propidium iodide. The suspension was incubated at 37° C. for 20 minutes, then washed with PBS and resuspended in 500 μL PBS and fluorescence quantified by Beckman Coulter Life Sciences CytoFLEX benchtop flow cytometer (Beckman Coulter, Inc., Brea, Calif.)."}, "[5]": {"tested_on": "gene expression in normal mouse lung fibroblasts", "test": "RNAseq of cultured lung fibroblasts", "assay_type": "cell-based", "conditions": "1 and 5 μM MIA-602, not exposed to bleomycin", "method": "as §5\nRNA was extracted from cultured fibroblasts using a Direct-zol RNA MicroPrep kit (R2060; Zymo Research, Irvine, Calif.). Cells were washed with PBS and lysed in TRIreagent™, then purified using Direct-zol RNA columns. DNase I treatment was done in columns and RNA eluted in DNase/Rnase-free water.\nRNAseq and Pathway analyses. At least 10 ng of total RNA was used as input for the KAPA RNA HyperPrep Kit with RiboErase (HMR) to create ribosomal RNA-depleted sequencing libraries, including sample indexing, to allow for multiplexing. Cluster generation and sequencing was done on the Illumina cBOT and HiSeq 3000 using reagents provided by Illumina, finally generating >32 million single-end 100 base reads per sample."}, "[6]": {"tested_on": "PAK1-STAT3/NF-κB in gastric cancer cells", "conditions": "Gan et al. 2016; cited from earlier work"}, "[7]": {"tested_on": "cellular levels of oxidant stress", "conditions": "Barbutis and Schally 2008; cited from earlier work"}}, "note": "Entries after “also recorded” stand apart in the source; their conditions may differ. Non-standard residues stand in square brackets, D forms with d. Residues, ends and D or L forms follow the SMILES beside them. *: point of attachment. Phe(F5) = N[C@@H](Cc1c(F)c(F)c(F)c(F)c1F)C(=O)O; hArg = N=C(N)NCCCC[C@H](N)C(=O)O; 12Ado = NCCCCCCCCCCCC(=O)O; Nle = CCCC[C@H](N)C(=O)O; Orn = NCCC[C@H](N)C(=O)O; Abu = CC[C@H](N)C(=O)O; PhAc = O=C(Cc1ccccc1)*"}
{"smiles": "CCCC[C@H](NC(=O)[C@@H](NC(=O)[C@H](CC(=O)O)NC(=O)[C@H](CCC(N)=O)NC(=O)[C@H](CC(C)C)NC(=O)[C@H](CC(C)C)NC(=O)[C@H](CCCN)NC(=O)[C@H](Cc1c[nH]cn1)NC(=O)[C@H](C)NC(=O)[C@H](CO)NC(=O)[C@H](CC(C)C)NC(=O)[C@H](CCC(N)=O)NC(=O)[C@H](CC)NC(=O)[C@H](CC(C)C)NC(=O)[C@@H](NC(=O)[C@H](CCCN)NC(=O)[C@H](Cc1c[nH]cn1)NC(=O)[C@H](Cc1ccc(OC)cc1)NC(=O)[C@H](CCCCNC(=N)N)NC(=O)[C@H](C)NC(=O)[C@@H](NC(=O)[C@H](Cc1c(F)c(F)c(F)c(F)c1F)NC(=O)[C@@H](NC(=O)[C@H](C)NC(=O)[C@H](CC(=O)O)NC(=O)[C@@H](CCCNC(=N)N)NC(=O)[C@H](Cc1ccc(O)cc1)NC(=O)CCCCCCCCCCCNC(=O)Cc1ccccc1)[C@@H](C)CC)[C@@H](C)O)C(C)C)[C@@H](C)CC)C(=O)N[C@H](CCCNC(=N)N)C(=O)N[C@@H](CCCCNC(=N)N)C(N)=O", "note": "[MIA-602, PhAC-Ada, Tyr D-Arg, Asp, Ala, Ile, 5FPhe, Thr, Ala, Har, Tyr(Me), His, Orn, Val, Leu, Abu, Gin, Leu, Ser, Ala, His, Om, Leu, Leu, Gin, Asp, Ile; Nle, D-Arg, Har NH2, reference compound] ({PhAc-12Ado}-Y[dR]DAI[Phe(F5)]TA[hArg]Y(Me)H[Orn]VL[Abu]QLSAH[Orn]LLQDI[Nle][dR][hArg]-NH2)", "values": [{"measurement": "relative inhibitory potency in comparison to MIA-602, Urothelial RT4", "setting": "[1]", "value": 1}, {"measurement": "relative inhibitory potency in comparison to MIA-602, Prostatic PC3", "setting": "[2]", "value": 1}, {"measurement": "infiltrative densities in lungs, micro-CT (in words)", "setting": "[3]", "value": "less prominent infiltrative densities"}, {"measurement": "cytolytic cell death", "setting": "[4]; 1 μM", "value": "9.3±1.1", "unit": "%"}, {"measurement": "cytolytic cell death", "setting": "[4]; 5 μM", "value": "34.9±2.5", "unit": "%"}, {"measurement": "fibroblast gene expression, RNA-seq (in words)", "setting": "[5]", "value": "significant downregulation of genes involved in collagen fibril organization, cell-matrix adhesion and elastic fiber assembly"}, {"measurement": "signaling pathways in gastric cancer cells (in words)", "setting": "[6]", "value": "downregulates p21 activated kinase and STAT3 and NFκB; also recorded: inhibits signaling pathways, including PAK1-STAT3/NF-κB"}, {"measurement": "cellular levels of oxidant stress (in words)", "setting": "[7]", "value": "decreased"}]}
